# Data published in patent publication US5763442A, “Anti-parasitic activity” (Universiteit Van Pretoria, priority 1995, dated 1998).
# System: Plasmodium falciparum (Fab-9)
# Experiment: 3H-hypoxanthine uptake, chloroquine sensitive strain Fab-9
# Format: cell-based
# Conditions: for PERCENTAGE INHIBITION (3H-hypoxanthine uptake): Fab-9
# Experimental: The following experiment was done to confirm previous results which were obtained microscopically and details of which are set out in Example 1.
# For this experiment the same two strains of P. falciparum, as used in Example 1 (RB-1 and Fab-9) were again used. Infected erythrocytes were diluted with human O-positive red blood cells to a parasitaemia of 0.2-0.9% and suspended to 3% in RPMI containing 44 mg/l hypxanthine and 10% human type serum. Aliquots (100 μl) of the suspension were dispensed into the wells of 96-well microtitre plates. To these suspensions 100 μl of the medium were added containing either chloroquine or B669 alone or a combination of chloroquine and B669. Relevant solvent controls were included. Negative control wells were also included containing uninfected red blood cells. The plates were incubated at 38° C. in a desiccator gassed with 5% O2, 5% CO2 and 90% N2. After 24 hours 100 μl culture medium of each well was replaced with […] of hypoxathine--free medium containing 10% human serum and 0,5μ Ci^3 H-hypoxanthine and incubated for a further 18 hours. The contents of the wells were then harvested on to glass fibre filters. The filters were washed with distilled water, dried, haemoglobin dissolved in a sodium bicarbonate solution and placed in scintillation vials containing 4 ml scintillation fluid and counted for 5 min in a liquid scintillation counter.
# The percentage inhibition was calculated as follows: [formula] where CPM was the mean of two values of counts per minute for each treatment.
compound,measurement,setting,value
"c1ccc(Nc2cc3nc4ccccc4n(-c4ccccc4)c-3cc2=NC2CCCCC2)cc1 [Compound B669, N,5-bis(phenyl)-3,5-dihydro-3-(cyclohexylimino)-2-phenazinamine]",effect on sensitivity of chloroquine sensitive strain to chloroquine,3H-hypoxanthine uptake,did not increase the sensitivity
same,sensitivity of chloroquine sensitive strain to B669 alone,B669 alone 0.125-1.0 μg/ml,sensitive to B669 alone
same,PERCENTAGE INHIBITION (3H-hypoxanthine uptake),B669 0.125 μg/ml + chloroquine 31 nM,12.9%
same,PERCENTAGE INHIBITION (3H-hypoxanthine uptake),B669 0.125 μg/ml + chloroquine 62 nM,7.4%
same,PERCENTAGE INHIBITION (3H-hypoxanthine uptake),B669 0.125 μg/ml + chloroquine 125 nM,68.3%
same,PERCENTAGE INHIBITION (3H-hypoxanthine uptake),B669 0.125 μg/ml + chloroquine 250 nM,81.4%
same,PERCENTAGE INHIBITION (3H-hypoxanthine uptake),B669 0.125 μg/ml + chloroquine 500 nM,100%
same,PERCENTAGE INHIBITION (3H-hypoxanthine uptake),B669 0.125 μg/ml + chloroquine 1000 nM,100%
same,PERCENTAGE INHIBITION (3H-hypoxanthine uptake),B669 0.25 μg/ml + chloroquine 31 nM,21.0%
same,PERCENTAGE INHIBITION (3H-hypoxanthine uptake),B669 0.25 μg/ml + chloroquine 62 nM,0%
same,PERCENTAGE INHIBITION (3H-hypoxanthine uptake),B669 0.25 μg/ml + chloroquine 125 nM,34.9%
same,PERCENTAGE INHIBITION (3H-hypoxanthine uptake),B669 0.25 μg/ml + chloroquine 250 nM,85.5%
same,PERCENTAGE INHIBITION (3H-hypoxanthine uptake),B669 0.25 μg/ml + chloroquine 500 nM,100%
same,PERCENTAGE INHIBITION (3H-hypoxanthine uptake),B669 0.25 μg/ml + chloroquine 1000 nM,100%
same,PERCENTAGE INHIBITION (3H-hypoxanthine uptake),B669 0.5 μg/ml + chloroquine 31 nM,60.5%
same,PERCENTAGE INHIBITION (3H-hypoxanthine uptake),B669 0.5 μg/ml + chloroquine 62 nM,91.7%
same,PERCENTAGE INHIBITION (3H-hypoxanthine uptake),B669 0.5 μg/ml + chloroquine 125 nM,93.6%
same,PERCENTAGE INHIBITION (3H-hypoxanthine uptake),B669 0.5 μg/ml + chloroquine 250 nM,100%
same,PERCENTAGE INHIBITION (3H-hypoxanthine uptake),B669 0.5 μg/ml + chloroquine 500 nM,100%
same,PERCENTAGE INHIBITION (3H-hypoxanthine uptake),B669 0.5 μg/ml + chloroquine 1000 nM,100%
same,PERCENTAGE INHIBITION (3H-hypoxanthine uptake),B669 1.0 μg/ml + chloroquine 31 nM,98.8%
same,PERCENTAGE INHIBITION (3H-hypoxanthine uptake),B669 1.0 μg/ml + chloroquine 62 nM,95.9%
same,PERCENTAGE INHIBITION (3H-hypoxanthine uptake),B669 1.0 μg/ml + chloroquine 125 nM,100%
same,PERCENTAGE INHIBITION (3H-hypoxanthine uptake),B669 1.0 μg/ml + chloroquine 250 nM,100%
same,PERCENTAGE INHIBITION (3H-hypoxanthine uptake),B669 1.0 μg/ml + chloroquine 500 nM,100%
same,PERCENTAGE INHIBITION (3H-hypoxanthine uptake),B669 1.0 μg/ml + chloroquine 1000 nM,100%
same,direct anti-malaria activity,especially chloroquine sensitive strain,Direct anti-malaria activity
